The Kinase Knowledgebase extract (Sharma et al. 2016)

What follows are compounds tested against PIK3CA (human) (UniProt P42336) (assay: Assessment of PIK3CA Kinase Activity).
Chain of PIK3CA (human) (P42336 whole entry, looked up): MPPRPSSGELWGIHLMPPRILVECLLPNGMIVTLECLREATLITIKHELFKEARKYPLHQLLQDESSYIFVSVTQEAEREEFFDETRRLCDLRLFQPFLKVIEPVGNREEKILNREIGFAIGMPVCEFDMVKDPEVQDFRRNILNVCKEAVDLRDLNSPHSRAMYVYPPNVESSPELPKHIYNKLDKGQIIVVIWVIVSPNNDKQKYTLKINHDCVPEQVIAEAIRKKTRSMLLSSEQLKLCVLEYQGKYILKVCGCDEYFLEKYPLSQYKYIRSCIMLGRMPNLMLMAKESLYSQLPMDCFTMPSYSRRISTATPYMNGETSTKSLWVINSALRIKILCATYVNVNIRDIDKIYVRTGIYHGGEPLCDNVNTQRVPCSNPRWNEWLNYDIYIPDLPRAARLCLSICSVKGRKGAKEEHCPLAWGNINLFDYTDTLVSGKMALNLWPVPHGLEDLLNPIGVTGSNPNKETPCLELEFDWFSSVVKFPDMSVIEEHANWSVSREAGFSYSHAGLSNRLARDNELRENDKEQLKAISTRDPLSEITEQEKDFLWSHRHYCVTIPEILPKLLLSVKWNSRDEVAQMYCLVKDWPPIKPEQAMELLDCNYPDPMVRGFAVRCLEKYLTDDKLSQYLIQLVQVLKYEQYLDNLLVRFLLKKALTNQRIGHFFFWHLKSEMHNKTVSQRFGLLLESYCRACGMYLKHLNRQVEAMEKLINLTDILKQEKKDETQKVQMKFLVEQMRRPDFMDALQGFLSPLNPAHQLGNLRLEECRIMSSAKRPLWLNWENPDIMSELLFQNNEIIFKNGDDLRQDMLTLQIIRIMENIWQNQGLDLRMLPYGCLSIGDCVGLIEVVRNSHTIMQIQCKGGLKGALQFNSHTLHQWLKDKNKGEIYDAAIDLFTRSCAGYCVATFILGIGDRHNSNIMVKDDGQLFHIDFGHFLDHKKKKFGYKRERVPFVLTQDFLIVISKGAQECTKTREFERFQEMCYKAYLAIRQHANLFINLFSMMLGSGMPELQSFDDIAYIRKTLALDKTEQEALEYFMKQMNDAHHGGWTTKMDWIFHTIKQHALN
`CC(C)n1ncnc1-c1cc2n(n1)-c1cc(C3CN(CC(N)=O)C3)ccc1OCC2` was tested, and the IC50 was under 1 µM.
`CC(C)n1ncnc1-c1cn2c(n1)-c1ccc(C3CN(CCS(C)(=O)=O)C3)cc1OCC2` gave an IC50 of under 1 µM.
For `CC(C)n1nc(N)nc1-c1cn2c(n1)-c1ccc(C3CC3)cc1OCC2`, the IC50 was under 1 µM.
`CC(C)n1ncnc1-c1cn2c(n1)-c1ccc(C3CCN(CC(=O)NC(C)(C)C)CC3)cc1OCC2` showed an IC50 of under 1 µM.
In the case of `Cc1n[nH]c(-c2cn3c(n2)-c2ccc(-c4cnn(CCO)c4)cc2OCC3)n1`, the IC50 is reported as under 1 µM.
`NC(=O)[C@@H]1COCCN1c1ccc2c(c1)OCCn1cc(-c3ncnn3CC(F)(F)F)nc1-2` was tested, and the IC50 was under 1 µM.
For `NC(=O)[C@@H]1CCCN1c1ccc2c(c1)OCCn1cc(-c3ncnn3CC(F)(F)F)nc1-2`, the IC50 was under 1 µM.
`CC(C)n1ncnc1-c1cn2c(n1)-c1ccc(OCC(N)=O)cc1OCC2` was tested, and the IC50 was under 1 µM.
For `NC(=O)[C@H](CO)Oc1ccc2c(c1)OCCn1cc(-c3ncnn3CC(F)(F)F)nc1-2`, the IC50 was under 1 µM.
`Cc1nc(-c2cn3c(n2)-c2cc(F)c(F)cc2OCC3)n(C(C)C)n1` was tested, and the IC50 was under 1 µM.
Compound `CC(C)n1ncnc1-n1cc2c(n1)-c1ccc(Br)cc1OCC2` has an IC50 of under 1 µM.
For `OCCn1cc(-c2ccc3c(c2)OCCn2cc(-c4ncnn4CC(F)(F)F)nc2-3)cn1`, the IC50 was under 1 µM.
`CC(C)n1ncnc1-c1cc2n(n1)-c1cc(C(=O)N3CCC(O)CC3)ccc1OCC2` showed an IC50 of under 1 µM.
`CC(C)n1ncnc1-c1cn2c(n1)-c1ccc(C(=O)NC(C)(C)CO)cc1OCC2` gave an IC50 of under 1 µM.
With `CC(C)n1ncnc1-c1cn2c(n1)-c1ccc(N3CCC[C@@H]3C(N)=O)cc1OCC2` the IC50 was under 1 µM.
Compound `Cc1nc(-c2ccc3c(c2)OCCn2cc(-c4ncnn4C(C)C)nc2-3)cn1CCOC1CCCCO1` (configuration not stated) has an IC50 of under 1 µM.
Work on `CC(C)n1ncnc1-c1cn2c(n1)-c1ccc(CN(C)C(N)=O)cc1OCC2` yielded an IC50 of under 1 µM.
Work on `CNC(=O)Cn1ccnc1-c1cn2c(n1)-c1ccc(-c3cnn(CC(C)(C)O)c3)cc1OCC2` yielded an IC50 of under 1 µM.
`CC(C)[C@H](Oc1ccc2c(c1)OCCn1cc(-c3ncnn3CC(F)(F)F)nc1-2)C(N)=O` showed an IC50 of under 1 µM.
With `CC(C)n1nc(CN(C)C)nc1-c1cn2c(n1)-c1ccccc1OCC2` the IC50 was under 1 µM.
`CC(C)n1ncnc1-c1cn2c(n1)-c1cnc(N3C4CCC3C(=O)NC4)cc1OCC2` (configuration not stated) gave an IC50 of under 1 µM.
Compound `O=C1CCCN1CCNc1cc2c(cn1)-c1nc(-c3ncnn3-c3ccc(F)cc3F)cn1CCO2` has an IC50 of under 1 µM.
`CC(C)n1ncnc1-c1cn2c(n1)-c1cnc(N3CCC(C)(C)[C@H]3C(N)=O)cc1OCC2` was tested, and the IC50 was under 1 µM.
In the case of `OCc1nc(-c2cn3c(n2)-c2cnc(N4CCCC4)cc2OCC3)n(CC(F)(F)F)n1`, the IC50 is reported as under 1 µM.
Work on `CC(C)n1ncnc1-c1cc2n(n1)-c1cc(C3CN(Cc4ccncc4)C3)ccc1OCC2` yielded an IC50 of under 1 µM.
For `CC(C)n1ncnc1-c1cn2c(n1)-c1cnc(N3CC[C@H](C)[C@H]3C(N)=O)cc1OCC2`, the IC50 was under 1 µM.
`CS(=O)(=O)CCN1CCC(c2ccc3c(c2)-c2nn(-c4ncnn4-c4ccc(F)cc4F)cc2CCO3)CC1` showed an IC50 of under 1 µM.
For `Cc1nc(-c2cn3c(n2)-c2cnc(N4CC(F)(F)C[C@H]4C(N)=O)cc2OCC3)n(C(C)C)n1`, the IC50 was under 1 µM.
Work on `CC(C)N1CCC(c2ccc3c(c2)OCCn2cc(-c4ncnn4C(C)C)nc2-3)C(C(N)=O)C1` (configuration not stated) yielded an IC50 of under 1 µM.
`CC(C)n1ncnc1-c1cn2c(n1)-c1ccncc1OCC2` showed an IC50 of under 1 µM.
For `COCc1nc(-c2cn3c(n2)-c2ccc(C4CCN(CC(N)=O)CC4)cc2OCC3)n(C(C)C)n1`, the IC50 was under 1 µM.
Work on `Cc1nc(-c2cn3c(n2)-c2ccc(-c4cnn(CC(C)C(N)=O)c4)cc2OCC3)n(C(C)C)n1` (configuration not stated) yielded an IC50 of under 1 µM.
Work on `CS(=O)(=O)CCNC(=O)c1ccc2c(c1)OCCn1cc(-c3ncnn3-c3ccccc3Cl)nc1-2` yielded an IC50 of under 1 µM.
`Nc1nc(-c2cn3c(n2)-c2cc(F)ccc2OCC3)n(CC(F)(F)F)n1` gave an IC50 of under 1 µM.
Work on `CC(C)n1ncnc1-c1cn2c(n1)-c1ccc(-c3cnn(C(C)(C)C(=O)O)c3)cc1OCC2` yielded an IC50 of under 1 µM.
For `Cc1nc(-c2cn3c(n2)-c2ccc(N)cc2OCC3)n(C(C)C)n1`, the IC50 was under 1 µM.
With `CC(C)CC(Oc1ccc2c(c1)OCCn1cc(-c3ncnn3C(C)C)nc1-2)C(N)=O` (configuration not stated) the IC50 was under 1 µM.
`Cc1nc(-c2cn3c(n2)-c2ccc([C@@H]4CCCN4C(N)=O)cc2OCC3)n(C(C)C)n1` showed an IC50 of under 1 µM.
With `Cc1nc(-c2cn3c(n2)-c2ccc(CN)cc2OCC3)n(-c2ccc(F)cc2F)n1` the IC50 was under 1 µM.
Compound `CC(C)n1ncnc1-c1cn2c(n1)-c1cnc(N3CCNC(=O)C3)cc1OCC2` has an IC50 of under 1 µM.
Compound `CCN1CCC(c2ccc3c(c2)OCCn2cc(-c4ncnn4C(C)C)nc2-3)CC1` has an IC50 of under 1 µM.
In the case of `Cc1nc(-c2cn3c(n2)-c2ccc([C@H]4CCCN4C(N)=O)cc2OCC3)n(C(C)C)n1`, the IC50 is reported as under 1 µM.
`CC(C)n1ncnc1-c1cn2c(n1)-c1cnc(N3CCC(O)CC3)cc1OCC2` showed an IC50 of under 1 µM.
`CC(C)n1ncnc1-c1cn2c(n1)-c1cc(-c3ccccc3)ccc1OCC2` was tested, and the IC50 was under 1 µM.
`CCOc1ccc2c(c1)OCCn1cc(-c3ncnn3C(C)C)nc1-2` showed an IC50 of under 1 µM.
In the case of `CC(C)Oc1ccc2c(c1)OCCn1cc(-c3ncnn3C(C)C)nc1-2`, the IC50 is reported as under 1 µM.
`NC(=O)CN1CCC(c2ccc3c(c2)-c2nn(-c4ncnn4-c4ccc(F)cc4F)cc2CCO3)CC1` gave an IC50 of under 1 µM.
Compound `CC(C)n1ncnc1-c1cn2c(n1)-c1ccc(C3=C(C(N)=O)CN(C)CC3)cc1OCC2` has an IC50 of under 1 µM.
`CC(C)n1ncnc1-c1cn2c(n1)-c1cc(C(=O)N3CCS(=O)(=O)CC3)ccc1OCC2` gave an IC50 of under 1 µM.
For `Cc1nc(-c2cn3c(n2)-c2ccc(Br)cc2OCC3)n(C(C)C)n1`, the IC50 was under 1 µM.
Work on `NC(=O)CN1CCC(c2ccc3c(c2)-n2nc(-c4ncnn4CC(F)(F)F)cc2CCO3)CC1` yielded an IC50 of under 1 µM.
In the case of `Cc1nc(-c2cn3c(n2)-c2ccc(-c4cnc(N(C)C)nc4)cc2OCC3)n(C(C)C)n1`, the IC50 is reported as under 1 µM.
Compound `CC(C)n1ncnc1-c1cn2c(n1)-c1ccc([C@H]3C[C@H]4CC[C@@H](C3)N4CC(N)=O)cc1OCC2` has an IC50 of under 1 µM.
`O=C(Nc1cn[nH]c1)c1ccc2c(c1)-n1nc(-c3ncnn3CC(F)(F)F)cc1CCO2` gave an IC50 of under 1 µM.
`Cc1nc(-c2cn3c(n2)-c2ccc(N4CC[C@H]4C(N)=O)cc2OCC3)n(CC(F)(F)F)n1` was tested, and the IC50 was under 1 µM.
Compound `CC(C)n1ncnc1-c1cn2c(n1)-c1ccc(-c3cn(C)c(CC(C)(C)O)n3)cc1OCC2` has an IC50 of under 1 µM.
Compound `CC(C)n1ncnc1-c1cc2n(n1)-c1cc(C3CN(C(=O)CO)C3)ccc1OCC2` has an IC50 of under 1 µM.
`CC(C)n1ncnc1-c1cn2c(n1)-c1cnc(N3C[C@H](O)C[C@H]3C(N)=O)cc1OCC2` showed an IC50 of under 1 µM.
`C[C@H](Nc1ccc2c(c1)OCCn1cc(-c3ncnn3CC(F)(F)F)nc1-2)C(N)=O` showed an IC50 of under 1 µM.
Compound `CC(C)n1ncnc1-c1cn2c(n1)-c1ccc(-c3ccccc3CO)cc1OCC2` has an IC50 of under 1 µM.
With `CO[C@H]1CCN(c2cc3c(cn2)-c2nc(-c4ncnn4C(C)C)cn2CCO3)[C@@H]1C(N)=O` the IC50 was under 1 µM.
With `CC(C)n1ncnc1-c1cn2c(n1)-c1cnc(N(C)CC(N)=O)cc1OCC2` the IC50 was under 1 µM.
Compound `Cc1nc(-c2cn3c(n2)-c2cc(-c4cnn(C)c4)ccc2OCC3)n(C(C)C)n1` has an IC50 of under 1 µM.
In the case of `CSc1nc(-c2cn3c(n2)-c2ccc(Br)cc2OCC3)n(C(C)C)n1`, the IC50 is reported as under 1 µM.
Compound `Cc1nc(-c2cn3c(n2)-c2ccccc2OCC3)n(C(C)C)n1` has an IC50 of under 1 µM.
`CC(C)n1ncnc1-c1cn2c(n1)-c1cnc(N)cc1OCC2` was tested, and the IC50 was under 1 µM.
`CC(C)n1ncnc1-c1cn2c(n1)-c1ccc(C3CCN(C(C)(C)CO)CC3)cc1OCC2` gave an IC50 of under 1 µM.
`CS(=O)(=O)CCNC(=O)c1ccc2c(c1)-c1nc(-c3ncnn3CC(F)(F)F)cn1CCO2` showed an IC50 of under 1 µM.
Compound `CC(C)[C@@H](Oc1ccc2c(c1)OCCn1cc(-c3ncnn3CC(F)(F)F)nc1-2)C(N)=O` has an IC50 of under 1 µM.
For `CC(C)n1ncnc1-c1cn2c(n1)-c1ccc(N3CC(F)(F)C[C@H]3C(N)=O)cc1OCC2`, the IC50 was under 1 µM.
`C[C@H](Oc1ccc2c(c1)OCCn1cc(-c3ncnn3C3CC3)nc1-2)C(N)=O` showed an IC50 of under 1 µM.
With `CC(C)n1ncnc1-c1cn2c(n1)-c1cnccc1OCC2` the IC50 was under 1 µM.
In the case of `CC(C)n1ncnc1-c1cn2c(n1)-c1cnc(N3CC[C@@H](O)[C@H]3C(N)=O)cc1OCC2`, the IC50 is reported as under 1 µM.
In the case of `CCOC(=O)C(C)Cn1cc(-c2ccc3c(c2)OCCn2cc(-c4nc(C)nn4C(C)C)nc2-3)cn1` (configuration not stated), the IC50 is reported as under 1 µM.
Work on `NC(=O)c1ccc2c(c1)OCCn1cc(-c3ncnn3-c3ccccc3Cl)nc1-2` yielded an IC50 of under 1 µM.
Work on `Cc1nc(-c2cn3c(n2)-c2ccc(-c4cncc(F)c4)cc2OCC3)n(C(C)C)n1` yielded an IC50 of under 1 µM.
`Oc1ccc2c(c1)OCCn1cc(-c3ncnn3CC(F)(F)F)nc1-2` gave an IC50 of under 1 µM.
For `NC(=O)c1ccc2c(c1)OCCc1cn(-c3ncnn3-c3ccc(F)cc3F)nc1-2`, the IC50 was under 1 µM.
For `CC(C)n1ncnc1-c1cn2c(n1)-c1cnc(N3CCC(C(N)=O)CC3)cc1OCC2`, the IC50 was under 1 µM.
In the case of `CC(C)n1ncnc1-c1cn2c(n1)-c1ccc(N3C[C@@H](F)C[C@H]3C(N)=O)cc1OCC2`, the IC50 is reported as under 1 µM.
For `CC(C)n1ncnc1-c1cn2c(n1)-c1ccc([C@H](C)C(N)=O)cc1OCC2`, the IC50 was under 1 µM.
In the case of `CC(C)n1ncnc1-c1cn2c(n1)-c1ccc(N3CCN(C)CC3)nc1OCC2`, the IC50 is reported as under 1 µM.
Compound `Cc1nc(-c2cn3c(n2)-c2ccc(-c4cncnc4)cc2OCC3)n(C(C)C)n1` has an IC50 of under 1 µM.
With `CC(C)n1ncnc1-c1cn2c(n1)-c1cnc(N3CCCC3)cc1OCC2` the IC50 was under 1 µM.
Compound `CCc1ccccc1-c1cn2c(n1)-c1ccc(C(=O)OC)cc1OCC2` has an IC50 of under 1 µM.
Work on `CC(C)(CO)NC(=O)c1ccc2c(c1)-c1nc(-c3ncnn3C3CCS(=O)(=O)C3)cn1CCO2` (configuration not stated) yielded an IC50 of under 1 µM.
`CC(C)n1ncnc1-c1cn2c(n1)-c1cnc(Cl)cc1OCC2` showed an IC50 of under 1 µM.
Compound `CC(C)n1ncnc1-c1cn2c(n1)-c1cc(C(=O)N3CCC(C(C)(C)O)CC3)ccc1OCC2` has an IC50 of under 1 µM.
Work on `Cc1nc(-c2cn3c(n2)-c2ccc(CNC(N)=O)cc2OCC3)n(-c2ccc(F)cc2F)n1` yielded an IC50 of under 1 µM.
`CC(C)n1ncnc1-c1cn2c(n1)-c1ccc(-c3ccccc3C(N)=O)cc1OCC2` showed an IC50 of under 1 µM.
For `CC(C)N1CC(NC(=O)c2ccc3c(c2)-n2nc(-c4ncnn4C(C)C)cc2CCO3)C1`, the IC50 was under 1 µM.
Compound `CC(C)n1ncnc1-c1cn2c(n1)-c1ccc(C3CN(CC(N)=O)C3)cc1OCC2` has an IC50 of under 1 µM.
In the case of `Nc1ccc2c(c1)OCCn1cc(-c3ncnn3CC(F)(F)F)nc1-2`, the IC50 is reported as under 1 µM.
In the case of `C[C@H](Oc1ccc2c(c1)OCCn1cc(-c3ncnn3CC(F)(F)F)nc1-2)C(N)=O`, the IC50 is reported as under 1 µM.
With `FC(F)(F)Cn1ncnc1-c1cc2n(n1)-c1cc(CNc3cnccn3)ccc1OCC2` the IC50 was under 1 µM.
In the case of `CC(C)n1ncnc1-c1cn2c(n1)-c1ccc(-c3cnc(N)nc3)cc1OCC2`, the IC50 is reported as under 1 µM.
`CC(Cc1ccc2c(c1)OCCn1cc(-c3ncnn3C(C)C)nc1-2)C(N)=O` (configuration not stated) showed an IC50 of under 1 µM.
